These results are taken from ChEMBL document CHEMBL3864173, “Design and Synthesis of Novel Macrocyclic Mer Tyrosine Kinase Inhibitors” (ACS Med Chem Lett, 2016).

A short description of the data set: Solubility of the compound at pH 7.4. The class given is physicochemical. The conditions noted are these: buffer.

`CCCCNc1ncc2c(-c3ccc(CN4CCN(C)CC4)cc3)cn([C@H]3CC[C@H](O)CC3)c2n1.Cl` showed a solubility of 47 mg/mL.

As a reminder, the solubility is the dissolved amount per volume that the medium holds.
